Reference: ChEMBL document CHEMBL5500352, “ML162 derivatives incorporating a naphthoquinone unit as ferroptosis/apoptosis inducers: Design, synthesis, anti-cancer activity, and drug-resistance reversal evaluation” (Eur J Med Chem, 2024)
pIC50: −log10 of the molar value. The source made the active and inactive calls. No cut-off for these calls is given here.

Experiments:
[1] = Potentiation of AMG510 induced cytotoxicity in human AMG 510-resistant MIA PaCa-2 cells assessed as reduction in cell survival rate at 1 uM in presence of 10 nM AMG510 (reference value: 90%); type: functional
[2] = test system: HT-1080; assay: Induction of ferroptosis in human HT-1080 cells assessed as appearance of ruptured mitochondria at 4 uM after 24 hrs by transmission electron microscope analysis; type: functional, cell-based
[3] = test system: HT-1080; assay: Induction of apoptosis in human HT-1080 cells assessed as late apoptotic cells at 1 uM incubated for 24 hrs by Annexin-V FITC/PI staining based flow cytometry analysis (reference value: 1.66%); type: functional
[4] = test system: HT-1080; assay: Antitumor activity against human HT-1080 cells xenografted in ip dosed BALB/c nude mouse assessed as increase in 4-HNE level administered once daily for 19 days and measured every 2 days by immunohistochemistry assay; type: functional, organism-based; conditions: dose 20-40 mg/kg, time 19.0 day
[5] = test system: HT-1080; assay: Induction of apoptosis in human HT-1080 cells assessed as viable cells at 4 uM incubated for 24 hrs by Annexin-V FITC/PI staining based flow cytometry analysis (reference value: 92.5%); type: functional; conditions: read-out: Activity
[6] = Toxicity in BALB/c nude mouse xenografted with human HT-1080 cells assessed as change in spleen morphology at 20 to 40 mg/kg, ip administered once daily for 19 days and measured every 2 days by H and E staining based assay; type: organism-based; conditions: in vivo, 456 h, dose 20-40 mg/kg, time 19 day
[7] = test system: HT-1080; assay: Induction of apoptosis in human HT-1080 cells assessed as early apoptotic cells at 1 uM incubated for 24 hrs by Annexin-V FITC/PI staining based flow cytometry analysis (reference value: 1.85%); type: functional
[8] = Toxicity in BALB/c nude mouse xenografted with human HT-1080 cells assessed as change in liver morphology at 20 to 40 mg/kg, ip administered once daily for 19 days and measured every 2 days by H and E staining based assay; type: organism-based; conditions: in vivo, 456 h, dose 20-40 mg/kg, time 19 day
[9] = biological target: T1, Phospholipid hydroperoxide glutathione peroxidase GPX4 (Homo sapiens) (UniProt P36969); assay: Induction of GPX4 degradation in human HT-1080 cells after 24 hrs by Western blotting assay; type: cell-based; conditions: dose 1-4 µM
T1 sequence (whole entry): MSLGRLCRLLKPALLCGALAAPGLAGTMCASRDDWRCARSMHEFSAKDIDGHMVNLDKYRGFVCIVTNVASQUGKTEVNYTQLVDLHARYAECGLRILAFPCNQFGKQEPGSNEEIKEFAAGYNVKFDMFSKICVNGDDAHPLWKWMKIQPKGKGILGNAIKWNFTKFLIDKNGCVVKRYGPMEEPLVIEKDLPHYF

[10] = test system: HT-1080; assay: Antitumor activity against human HT-1080 cells xenografted in BALB/c nude mouse assessed as tumor growth inhibition at 20 mg/kg, ip administered once daily for 19 days and measured every 2 days; type: functional, organism-based; conditions: time 19.0 day
[11] = Toxicity in BALB/c nude mouse xenografted with human HT-1080 cells assessed as change in heart morphology at 20 to 40 mg/kg, ip administered once daily for 19 days and measured every 2 days by H and E staining based assay; type: organism-based; conditions: in vivo, 456 h, dose 20-40 mg/kg, time 19 day
[12] = test system: HT-1080; assay: Induction of ferroptosis in human HT-1080 cells assessed as accumulation of intracellular ROS level at 4 uM after 12 hrs by DCFH-DA staining based confocal laser scanning microscopy analysis; type: functional, cell-based
[13] = Toxicity in BALB/c nude mouse xenografted with human HT-1080 cells assessed as change in lung morphology at 20 to 40 mg/kg, ip administered once daily for 19 days and measured every 2 days by H and E staining based assay; type: organism-based; conditions: in vivo, 456 h, dose 20-40 mg/kg, time 19 day
[14] = test system: HT-1080; assay: Induction of ferroptosis in human HT-1080 cells assessed as mitochondrial swelling at 4 uM after 24 hrs by transmission electron microscope analysis; type: functional, cell-based
[15] = test system: HT-1080; assay: Induction of apoptosis in human HT-1080 cells assessed as increase in Bax level after 24 hrs by Western blotting analysis; type: functional, cell-based; conditions: dose 0.5-4 µM
[16] = biological target: T1, Phospholipid hydroperoxide glutathione peroxidase GPX4 (Homo sapiens); assay: Induction of GPX4 degradation in human HT-1080 cells at 2 to 4 uM after 24 hrs in presence of MG132 by Western blotting assay; type: cell-based; conditions: dose 2-4 µM
[17] = test system: HT-1080; assay: Cytotoxicity against human HT-1080 cells incubated for 48 hrs by CCK-8 assay; type: functional, cell-based; conditions: HT-1080, 48 h

- Activity [9]: Dose-Dependent Effect
- Activity [16]: inactive
SMILES: O=C(CCCCCNC1=CC(=O)c2ccccc2C1=O)Nc1ccc(N(C(=O)CCl)C(C(=O)NCCc2ccccc2)c2cccs2)cc1 (configuration not stated)
- Activity [1]: ~60%
- Activity [2]: Active
- Activity [3]: 3.11%
- Activity [4]: Dose-Dependent Effect
- viability at 4 µM [5]: 79.9%
- Activity [6]: Non-Toxic
- Activity [7]: 3.85%
- Activity [8]: Non-Toxic
- Activity [10]: Active
- Activity [11]: Non-Toxic
- Activity [12]: Active
- Activity [13]: Non-Toxic
- Activity [14]: Active
- Activity [15]: Dose-Dependent Effect
- pIC50 [17]: 5.80
